# According to paper PMC11984586, “A novel spider toxin as a selective antagonist of the Kv1 subfamily of voltage-gated potassium channels through gating modulation” (The Journal of Biological Chemistry, 2025):
# Read-outs that look alike come from different tables or passages of the source. Bridge positions count the residues as written; N and C are the ends. Peptide text beside a SMILES is read from it.
# Legend:
# hKv1.3 = target: T1, hKv1.3 (Homo sapiens, UniProt P22001); assay: Whole-cell patch clamp, Kv1.3 ionic current in CHO-K1 cells; type: cell-based; settings: mean ± SD; for IC50: 500 ms depolarization to +30 mV from −80 mV holding, CHO-K1, room temperature
# T1 construct: expressed in transfected cells; host or cells: CHO-K1
# T1 sequence (P22001 whole entry): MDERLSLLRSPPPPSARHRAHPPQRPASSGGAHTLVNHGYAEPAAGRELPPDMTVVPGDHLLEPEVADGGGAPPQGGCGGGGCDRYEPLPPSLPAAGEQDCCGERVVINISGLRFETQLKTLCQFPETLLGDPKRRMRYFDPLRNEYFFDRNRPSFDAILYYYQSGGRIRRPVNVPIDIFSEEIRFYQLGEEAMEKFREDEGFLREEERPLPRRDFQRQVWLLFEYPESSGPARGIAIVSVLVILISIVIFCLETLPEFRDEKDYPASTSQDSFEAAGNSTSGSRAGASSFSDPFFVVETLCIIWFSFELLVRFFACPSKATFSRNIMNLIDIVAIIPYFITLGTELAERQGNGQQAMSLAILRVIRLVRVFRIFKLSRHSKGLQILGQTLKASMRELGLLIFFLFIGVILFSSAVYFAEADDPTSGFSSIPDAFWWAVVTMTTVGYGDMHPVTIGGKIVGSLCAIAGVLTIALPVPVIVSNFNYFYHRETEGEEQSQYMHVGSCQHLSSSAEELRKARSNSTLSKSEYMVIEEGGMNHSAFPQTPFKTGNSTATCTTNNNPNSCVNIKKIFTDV
# Experimental: (§1) The cDNA of hKv1.1, hKv1.2, hKv1.3, rKv1.4, hKv1.5, mKv1.6, and hKv1.7 were subcloned into mammalian expression vectors pcDNA3.1 or pCMV-blank vectors, as well as other plasmids described previously ([35]). Channel mutants were generated by site-directed mutations. Briefly, the parental channel plasmid was amplified using a pair of oppositely directed primers harboring the designed mutation site, with KOD Fx (TOYOBO Co, Ltd). The resulting PCR mix was treated with FastDigest DpnI (Thermo Fisher Scientific) to remove the methylated template. Ten microliters of the digested product was then used to transform 100 μl E. coli DH5α competent cells. Transformants were randomly picked and sequenced to confirm the presence of the intended mutation.
# (§2) CHO-K1 cells were selected for expressing Kv channels due to their lack of endogenous Kv channels, while HEK293 or ND7/23 cells were used for Nav and Cav channel expression. CHO-K1 cells were cultured in a Dulbecco's modified Eagle's medium/Ham's F-12 nutrient mixture (DMEM-F12) medium, and HEK293T and ND7/23 cells in DMEM medium, all supplemented with 10% fetal bovine serum and 1% penicillin-streptomycin (all from Gibco, Thermo Fisher Scientific, Inc) under standard conditions (37 °C, 5% CO2, and saturated humidity). These cell lines were purchased from Stem Cell Bank, Chinese Academy of Sciences. Channel plasmids were cotransfected with pEGFP-N1 (encoding GFP) into the respective cells using lipofectamine 2000, following the manufacturer's instructions (Invitrogen, Thermo Fisher Scientific, Inc.). Nav1.9-GFP plasmid was transfected into ND7/23 using the X-tremeGENE HP DNA Transfection Reagent (Roche). After 4 to 6 h transfection, cells were seeded onto poly-lysine–coated coverslips, and 24 to 36 h later, transfected cells were ready for patch-clamp analysis.
# (§3) Patch clamp experiments were conducted using an electrophysiology platform comprising a MultiClamp 700B amplifier and an Axon Digidata 1550 AD/DA convertor (Axon Instruments). Data acquisition was performed with pClamp 10.5 software (Axon Instruments). All experiments were performed at room temperature.
# For Kv current recordings, the bath solution contained (in mM) the following: 140 NaCl, 5 KCl, 1 MgCl2, 2 CaCl2, 10 glucose, and 10 Hepes (pH 7.3, adjusted with NaOH), and the pipette solution contained (in mM) the following: 140 KCl, 2.5 MgCl2, 11 EGTA, and 10 Hepes (pH 7.3, adjusted with KOH). Series resistance was maintained below 10 MΩ and compensated to 80%. Concentration–response curves were fitted by the Hill equation to determine the toxin's potency. Whole cell conductance (G) at each depolarizing voltage (V) was determined using the equation: G = I/(V−Vrev), where I is the current amplitude, and Vrev is the reversal potential. The reversal potential for K^+ current was estimated to be −85.6 mV using the Nernst equation. G-V curves were obtained by plotting the normalized conductance as a function of V and fitted by the Boltzmann equation: y = 1/(1+ exp((Va-V)/k)), which Va is the midpoint voltage, V is the test potential, and k is the slope factor. The steady-state fast inactivation of Kv1.3 was measured using a two-pulses protocol. The cell was held at −120 mV, and a train of conditional voltages (−120–40 mV in 10 mV increments, 60 s) were applied to induce channel inactivation, followed by a +60 mV test pulse (300 ms) to assess the proportion of noninactivated channels. The sweep interval was set to 30 s. Currents at the test pulse (I) were normalized to the maximum value (Imax) and plotted as a function of the conditional voltage (V). The curve was fitted by the Boltzmann equation: I/Imax = A+(1 − A)/(1+exp ((V−Vh)/K)), where Vh is the half-maximum inactivation voltage, A represents the minimum channel availability, and k is the slope factor.
# Kv1.3 E349A mutant = assay: Whole-cell patch clamp, Kv1.3 alanine mutant; type: cell-based, human; settings: 100 nM MrVIII, +30 mV; n = 4–7
# Experimental: (§4) MrVIII inhibits Kv1 channels by stabilizing the voltage sensor in its resting state. […] To investigate this hypothesis, we constructed a series of alanine mutants in the S3-S4 region of the Kv1.3 channel, covering residues I336 to L363, to identify critical interactions between the peptide and the channel (Fig. 6A). […] For the remaining mutants that retained functional current expression, we evaluated the inhibitory activity of 100 nM MrVIII. […] The lack of conserved multiple interaction sites may explain the absence of activity on other Kv subfamily channels (Fig. S3). In summary, this study identified key amino acid residues in the S3-S4 region of the Kv1.3 channel that interact with MrVIII, providing a foundation for further exploration into the peptide's mechanism of action.
# as §1, §2, §3
# (§5) For Kv current recordings, the bath solution contained (in mM) the following: 140 NaCl, 5 KCl, 1 MgCl2, 2 CaCl2, 10 glucose, and 10 Hepes (pH 7.3, adjusted with NaOH), and the pipette solution contained (in mM) the following: 140 KCl, 2.5 MgCl2, 11 EGTA, and 10 Hepes (pH 7.3, adjusted with KOH). Series resistance was maintained below 10 MΩ and compensated to 80%. Concentration–response curves were fitted by the Hill equation to determine the toxin's potency. Whole cell conductance (G) at each depolarizing voltage (V) was determined using the equation: G = I/(V−Vrev), where I is the current amplitude, and Vrev is the reversal potential. The reversal potential for K^+ current was estimated to be −85.6 mV using the Nernst equation. G-V curves were obtained by plotting the normalized conductance as a function of V and fitted by the Boltzmann equation: y = 1/(1+ exp((Va-V)/k)), which Va is the midpoint voltage, V is the test potential, and k is the slope factor. The steady-state fast inactivation of Kv1.3 was measured using a two-pulses protocol. […]
# Kv1.3 G344A mutant = assay: Whole-cell patch clamp, Kv1.3 alanine mutant; type: cell-based, human; settings: 100 nM MrVIII, +30 mV; n = 4–7
# Experimental: as §4, §1, §2, §3, §5
# Cav1.3 = assay: Selectivity patch clamp, non-Kv1 channels; type: cell-based; settings: 10 μM MrVIII; n = 3–5
# Experimental: as §2, §3
# Cav2.2 = assay: Selectivity patch clamp, non-Kv1 channels; type: cell-based; settings: 10 μM MrVIII; n = 3–5
# Experimental: as §2, §3
# Cav3.2-3.3 = assay: Selectivity patch clamp, non-Kv1 channels; type: cell-based; settings: 10 μM MrVIII; n = 3–5
# Experimental: as §2, §3
# Nav1.2 = assay: Selectivity patch clamp, non-Kv1 channels; type: cell-based; settings: 10 μM MrVIII; n = 3–5
# Experimental: as §2, §3
# Nav1.4-1.5 = assay: Selectivity patch clamp, non-Kv1 channels; type: cell-based; settings: 10 μM MrVIII; n = 3–5
# Experimental: as §2, §3
# Nav1.7-1.9 = assay: Selectivity patch clamp, non-Kv1 channels; type: cell-based; settings: 10 μM MrVIII; n = 3–5
# Experimental: as §2, §3
smiles,measurement,setting,value
"CC[C@H](C)[C@@H]1NC(=O)[C@H](Cc2ccc(O)cc2)NC(=O)[C@H](CCC(N)=O)NC(=O)[C@@H]2CCCN2C(=O)[C@@H]2CSSC[C@H](NC(=O)[C@H](C)NC(=O)[C@H](CO)NC(=O)[C@H](CCC(=O)O)NC(=O)[C@H](CCC(=O)O)NC(=O)[C@@H](N)[C@@H](C)O)C(=O)NCC(=O)NCC(=O)N[C@@H](Cc3ccccc3)C(=O)N[C@@H](CC(N)=O)C(=O)N[C@@H](C)C(=O)N[C@@H](CCCNC(=N)N)C(=O)N[C@H]3CSSC[C@H](NC1=O)C(=O)N[C@@H](CCCCN)C(=O)NCC(=O)N[C@@H](Cc1c[nH]c4ccccc14)C(=O)N[C@@H](CCCNC(=N)N)C(=O)N[C@@H]([C@@H](C)O)C(=O)N[C@@H](CCCCN)C(=O)N[C@@H](CCCNC(=N)N)C(=O)N[C@H](C(=O)N[C@@H](CC(C)C)C(=O)N[C@@H](CC(N)=O)C(=O)N1CCC[C@H]1C(=O)O)CSSC[C@H](NC(=O)[C@H](CCCCN)NC(=O)[C@H](Cc1c[nH]cn1)NC(=O)[C@H](CC(C)C)NC(=O)[C@@H]1CCCN1C3=O)C(=O)N2 [MrVIII] (H-TEESACGGFNARCPLHKCCPQYICKGWRTKRCLNP-OH; disulfide 6-19, 13-24, 18-32; N-terminus and C-terminus assumed)",Va of G-V curve of Kv1.3 after toxin,"hKv1.3; 5 nM MrVIII, control Va = −26.4 ± 4.6 mV, Boltzmann fit",−27.7 ± 5.1 mV
same,Vh of steady-state inactivation of Kv1.3 after toxin,"hKv1.3; 5 nM MrVIII, control Vh = −42.2 ± 4.7 mV, two-pulse protocol",−42.5 ± 2.4 mV
same,"time constant for toxin association, Kv1.3","hKv1.3; 10 nM MrVIII, n = 6",5.4 ± 1.2 s
same,IC50,"hKv1.3; native toxin, n = 7, read-out: IC50, inhibition of Kv1.3 peak current",4.4 ± 1.1 nM
same,IC50,"hKv1.3; synthetic refolded toxin, n = 7, read-out: IC50, inhibition of Kv1.3 current",4.8 ± 1.6 nM
same,time constant for dissociation from Kv1.3,"hKv1.3; washout with bath solution after 10 nM MrVIII, n = 6",33.4 ± 8.3 s
same,"reduction in inhibitory potency vs WT Kv1.3, E349A",Kv1.3 E349A mutant,more than 5 fold
same,"reduction in inhibitory potency vs WT Kv1.3, G344A",Kv1.3 G344A mutant,more than 5 fold
same,inhibition of Cav1.3 current,Cav1.3,did not remarkably inhibit
same,inhibition of Cav2.2 current,Cav2.2,did not remarkably inhibit
same,inhibition of Cav3.2-3.3 currents,Cav3.2-3.3,did not remarkably inhibit
same,inhibition of Nav1.2 current,Nav1.2,did not remarkably inhibit
same,inhibition of Nav1.4-1.5 currents,Nav1.4-1.5,did not remarkably inhibit
same,inhibition of Nav1.7-1.9 currents,Nav1.7-1.9,did not remarkably inhibit
